Measured values as given in patent US8192962B2, “Processes for detecting toxic substances” (Daikin Industries, Ltd., priority 2001, dated 2012).

Tested on: Mitochondria-located protein genes
Assay: DNA chip mRNA expression in yeast, mitochondria-located protein genes (Table 2)
Type: cell-based, Saccharomyces cerevisiae S288C
Conditions: cells incubated two hours with the chemical substance
Procedure, shortened: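 S. cerevisiae S288C grown at 25° C. in YPD to log phase, then exposed 2 h to a toxicant at a growth-inhibiting, non-lethal concentration; untreated cells as control. Poly(A) mRNA reverse-transcribed with Cy3-dUTP or Cy5-dUTP, hybridized >12 h at 65° C. to whole-genome yeast DNA chip; value = fluorescence ratio treated/untreated.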

[Cl][Hg][Cl] [(3), HgCl2]
The level of expressed mRNA in the presence of chemical substance/The level of expressed mRNA in the absence of chemical substance (yeast gene YAL039C): 1.7
The level of expressed mRNA in the presence of chemical substance/The level of expressed mRNA in the absence of chemical substance (yeast gene YBL022C): 1.2
The level of expressed mRNA in the presence of chemical substance/The level of expressed mRNA in the absence of chemical substance (yeast gene YBL030C): 4.5
The level of expressed mRNA in the presence of chemical substance/The level of expressed mRNA in the absence of chemical substance (yeast gene YBL038W): 0.5
The level of expressed mRNA in the presence of chemical substance/The level of expressed mRNA in the absence of chemical substance (yeast gene YBL099W): 3.1
The level of expressed mRNA in the presence of chemical substance/The level of expressed mRNA in the absence of chemical substance (yeast gene YBR003W): 1.0
The level of expressed mRNA in the presence of chemical substance/The level of expressed mRNA in the absence of chemical substance (yeast gene YBR044C): 0.7
The level of expressed mRNA in the presence of chemical substance/The level of expressed mRNA in the absence of chemical substance (yeast gene YBR091C): 0.6
The level of expressed mRNA in the presence of chemical substance/The level of expressed mRNA in the absence of chemical substance (yeast gene YBR122C): 0.3
The level of expressed mRNA in the presence of chemical substance/The level of expressed mRNA in the absence of chemical substance (yeast gene YBR185C): 1.3
The level of expressed mRNA in the presence of chemical substance/The level of expressed mRNA in the absence of chemical substance (yeast gene YBR221C): 3.2
The level of expressed mRNA in the presence of chemical substance/The level of expressed mRNA in the absence of chemical substance (yeast gene YBR251W): 1.0
The level of expressed mRNA in the presence of chemical substance/The level of expressed mRNA in the absence of chemical substance (yeast gene YBR282W): 0.5
The level of expressed mRNA in the presence of chemical substance/The level of expressed mRNA in the absence of chemical substance (yeast gene YCL057W): 2.3
The level of expressed mRNA in the presence of chemical substance/The level of expressed mRNA in the absence of chemical substance (yeast gene YCR046C): 1.2
The level of expressed mRNA in the presence of chemical substance/The level of expressed mRNA in the absence of chemical substance (yeast gene YCR083W): 1.5
The level of expressed mRNA in the presence of chemical substance/The level of expressed mRNA in the absence of chemical substance (yeast gene YDL067C): 1.6
The level of expressed mRNA in the presence of chemical substance/The level of expressed mRNA in the absence of chemical substance (yeast gene YDL181W): 1.9
The level of expressed mRNA in the presence of chemical substance/The level of expressed mRNA in the absence of chemical substance (yeast gene YDL198C): 2.1
The level of expressed mRNA in the presence of chemical substance/The level of expressed mRNA in the absence of chemical substance (yeast gene YDR079W): 0.8
The level of expressed mRNA in the presence of chemical substance/The level of expressed mRNA in the absence of chemical substance (yeast gene YDR178W): 3.4
The level of expressed mRNA in the presence of chemical substance/The level of expressed mRNA in the absence of chemical substance (yeast gene YDR231C): 1.0
The level of expressed mRNA in the presence of chemical substance/The level of expressed mRNA in the absence of chemical substance (yeast gene YDR258C): 2.8
The level of expressed mRNA in the presence of chemical substance/The level of expressed mRNA in the absence of chemical substance (yeast gene YDR298C): 2.6
The level of expressed mRNA in the presence of chemical substance/The level of expressed mRNA in the absence of chemical substance (yeast gene YDR347W): 0.9
The level of expressed mRNA in the presence of chemical substance/The level of expressed mRNA in the absence of chemical substance (yeast gene YDR377W): 1.3
The level of expressed mRNA in the presence of chemical substance/The level of expressed mRNA in the absence of chemical substance (yeast gene YDR529C): 0.9
The level of expressed mRNA in the presence of chemical substance/The level of expressed mRNA in the absence of chemical substance (yeast gene YEL024W): 3.8
The level of expressed mRNA in the presence of chemical substance/The level of expressed mRNA in the absence of chemical substance (yeast gene YEL039C): 1.3
The level of expressed mRNA in the presence of chemical substance/The level of expressed mRNA in the absence of chemical substance (yeast gene YER178W): 3.6
The level of expressed mRNA in the presence of chemical substance/The level of expressed mRNA in the absence of chemical substance (yeast gene YFL016C): 1.6
The level of expressed mRNA in the presence of chemical substance/The level of expressed mRNA in the absence of chemical substance (yeast gene YGL018C): 1.8
The level of expressed mRNA in the presence of chemical substance/The level of expressed mRNA in the absence of chemical substance (yeast gene YGL187C): 1.6
The level of expressed mRNA in the presence of chemical substance/The level of expressed mRNA in the absence of chemical substance (yeast gene YGL191W): 1.4
The level of expressed mRNA in the presence of chemical substance/The level of expressed mRNA in the absence of chemical substance (yeast gene YGR008C): 1.7
The level of expressed mRNA in the presence of chemical substance/The level of expressed mRNA in the absence of chemical substance (yeast gene YGR028W): 1.0
The level of expressed mRNA in the presence of chemical substance/The level of expressed mRNA in the absence of chemical substance (yeast gene YGR062C): 0.7
The level of expressed mRNA in the presence of chemical substance/The level of expressed mRNA in the absence of chemical substance (yeast gene YGR076C): 0.6
The level of expressed mRNA in the presence of chemical substance/The level of expressed mRNA in the absence of chemical substance (yeast gene YGR082W): 2.2
The level of expressed mRNA in the presence of chemical substance/The level of expressed mRNA in the absence of chemical substance (yeast gene YGR174C): 0.6
The level of expressed mRNA in the presence of chemical substance/The level of expressed mRNA in the absence of chemical substance (yeast gene YGR244C): 1.6
The level of expressed mRNA in the presence of chemical substance/The level of expressed mRNA in the absence of chemical substance (yeast gene YHR008C): 4.8
The level of expressed mRNA in the presence of chemical substance/The level of expressed mRNA in the absence of chemical substance (yeast gene YIL155C): 1.4
The level of expressed mRNA in the presence of chemical substance/The level of expressed mRNA in the absence of chemical substance (yeast gene YJL096W): 0.8
The level of expressed mRNA in the presence of chemical substance/The level of expressed mRNA in the absence of chemical substance (yeast gene YJL102W): 0.4
The level of expressed mRNA in the presence of chemical substance/The level of expressed mRNA in the absence of chemical substance (yeast gene YJL133W): 2.0
The level of expressed mRNA in the presence of chemical substance/The level of expressed mRNA in the absence of chemical substance (yeast gene YJL166W): 1.6
The level of expressed mRNA in the presence of chemical substance/The level of expressed mRNA in the absence of chemical substance (yeast gene YJL180C): 1.1
The level of expressed mRNA in the presence of chemical substance/The level of expressed mRNA in the absence of chemical substance (yeast gene YJR045C): 3.9
The level of expressed mRNA in the presence of chemical substance/The level of expressed mRNA in the absence of chemical substance (yeast gene YJR077C): 2.0
